Reference: US11547681B2, “N-acylethanolamide derivatives and uses thereof” (ELIEM THERAPEUTICS, INC., priority 2016, dated 2023)

Assay: in vitro
Conditions: male, Sprague-Dawley, rat; for Concentration (μM) of analyte PEA, 0 min / Concentration (μM) of analyte PEA, 10 min / Concentration (μM) of analyte PEA, 20 min / Concentration (μM) of analyte PEA, 30 min / Concentration (μM) of analyte PEA, 60 min / % Remaining of Initial (n = 1), 0 min / % Remaining of Initial (n = 1), 10 min / % Remaining of Initial (n = 1), 20 min / % Remaining of Initial (n = 1), 30 min / % Remaining of Initial (n = 1), 60 min / Measured concentration of PEA (analyte) / % Remaining of Initial / Concentration of analyte I-9 / Concentration of analyte PEA / % Remaining of Initial (n = 1): 1 μM
Experimental: The reaction mixture, minus cofactors, was prepared as described below. The test article was added into the reaction mixture at a final concentration of 1 μM. […] An aliquot of the reaction mixture (without cofactor cocktail) was equilibrated in a shaking water bath at 37° C. for 3 minutes. The reaction was initiated by the addition of cofactor cocktail, and the mixture was incubated in a shaking water bath at 37° C. Aliquots (100 μL) were withdrawn at 0, 10, 20, 30, and 60 minutes. All samples were immediately combined with 400 uL of icecold 50/50 acetonitrile/H2O containing 0.1% formic acid and internal standard to terminate the reaction. The samples were then mixed and centrifuged to precipitate proteins. Calibration standards were prepared in matched matrix. All samples and standards were assayed by LC-MS/MS using electrospray ionization for both the dosed prodrug I-9 and the expected drug (PEA). Analytical conditions are outlined in Appendix 4-1. The test article concentration at each time point was compared to the test article concentration at time 0 to determine the percent remaining at each time point. Half-lives were calculated using GraphPad software, fitting to single-phase exponential decay equation.
(§1) Reaction mixture, minus cofactors, was prepared as described below. Test article was added into the reaction mixture at a final concentration of 1 μM. […] An aliquot of the reaction mixture (without cofactor cocktail) was equilibrated in a shaking water bath at 37° C. for 3 minutes. The reaction was initiated by the addition of cofactor cocktail, and the mixture was incubated in a shaking water bath at 37° C. Aliquots (100 μL) were withdrawn at 0, 10, 20, 30, and 60 minutes. Test article samples were immediately combined with 300 μL of ice-cold acetonitrile containing 1% formic acid. Control samples were immediately combined with 400 μL of ice-cold 50/50 acetonitrile (ACN)/dH2O containing 0.1% formic acid and internal standard to terminate the reaction. Samples were then mixed and centrifuged to precipitate proteins. Calibration standards were prepared in matched matrix. Samples and standards were assayed by LC-MS/MS using electrospray ionization for both the dosed prodrug and the expected drug (PEA). Analytical conditions are outlined in Appendix 8-1. Test article concentration at each time point was compared to test article concentration at time 0 to determine the percent remaining at each time point. Halflives were calculated using GraphPad software, fitting to a single-phase exponential decay equation.
as §1, with “for 5” for “for 3”, “minutes. Reaction” for “minutes. The reaction”, “and” for “and the”, “both” for “both the”, “Appendix 10-1.” for “Appendix 8-1.”
Reaction mixture, minus cofactors, was prepared as described below.

SMILES	Concentration (μM) of analyte PEA, 0 min (0 min)	Concentration (μM) of analyte PEA, 10 min (10 min)	Concentration (μM) of analyte PEA, 20 min (20 min)	Concentration (μM) of analyte PEA, 30 min (30 min)	Concentration (μM) of analyte PEA, 60 min (60 min)	% Remaining of Initial (n = 1), 0 min (s9, 0 h)	% Remaining of Initial (n = 1), 10 min (s9, 10 min)	% Remaining of Initial (n = 1), 20 min (s9, 20 min)	% Remaining of Initial (n = 1), 30 min (s9, 0.5 h)	% Remaining of Initial (n = 1), 60 min (s9, 1 h)	microsomal CLint at 1 μM (s9, CLint (mL/min/mg protein))	half-life at 1 μM (s9, Half-life (min))	also measured
CC/C=C\C/C=C\C/C=C\C/C=C\C/C=C\CCCC(=O)OCCNC(=O)CCCCCCCCCCCCCCC [Compound I-5]	0.029 µM	0.062 µM	0.099 µM	0.11 µM	0.18 µM	100%	57%	48%	46%	44%	18.2 µL/min/mg	38 min	–
CCCCC/C=C\C/C=C\CCCCCCCC(=O)OCCNC(=O)CCCCCCCCCCCCCCC [Compound I-6]	0.069 µM	0.088 µM	0.094 µM	0.10 µM	0.11 µM	100%	78%	92%	79%	59%	< 11.6 µL/min/mg	> 60 min	microsomal CLint at 1 μM (s9, CLint (mL/min/mg protein), calculated value in parentheses): 7.65 µL/min/mg; half-life at 1 μM (s9, Half-life (min), calculated half-life in parentheses): 91 min
CCCCCCCCCCCCCCCC(=O)NCCOC(=O)CCC(=O)OC[C@H]1O[C@@](CO)(O[C@H]2O[C@H](CO)[C@@H](O)[C@H](O)[C@H]2O)[C@@H](O)[C@@H]1O [Compound I-7]	0.042 µM	0.24 µM	0.35 µM	0.47 µM	0.60 µM	100%	60%	37%	31%	13%	–	–	–
CCCCCCCCCCCCCCCC(=O)NCCOC(=O)CCC(=O)OC(CO)CO [Compound I-8]	–	–	–	–	–	–	–	–	–	–	–	–	Measured concentration of PEA (analyte) (0 min): 0.022 µM; Measured concentration of PEA (analyte) (10 min): 0.22 µM; Measured concentration of PEA (analyte) (20 min): 0.34 µM; Measured concentration of PEA (analyte) (30 min): 0.42 µM; Measured concentration of PEA (analyte) (60 min): 0.45 µM; % Remaining of Initial (s9, 0 h): 100%; % Remaining of Initial (s9, 10 min): 58%; % Remaining of Initial (s9, 20 min): 37%; % Remaining of Initial (s9, 0.5 h): 22%; % Remaining of Initial (s9, 1 h): 6.2%; microsomal CLint at 1 μM (s9, CLint): 50.3 µL/min/mg; half-life at 1 μM (s9, Half-life): 14 min
CCCCCCCCCCCCCCCC(=O)NCCOC(=O)CCC(=O)OCC(O)CO (stereo not drawn) [Compound I-9]	0.034 µM	0.22 µM	0.31 µM	0.36 µM	0.39 µM	100%	45%	26%	15%	3.6%	–	–	Concentration of analyte I-9 (0 min): 0.77 µM; Concentration of analyte PEA (0 min): 0.031 µM; Concentration of analyte I-9 (10 min): 0.91 µM; Concentration of analyte PEA (10 min): 0.088 µM; Concentration of analyte I-9 (20 min): 0.68 µM; Concentration of analyte PEA (20 min): 0.13 µM; Concentration of analyte I-9 (30 min): 0.58 µM; Concentration of analyte PEA (30 min): 0.16 µM; Concentration of analyte I-9 (60 min): 0.38 µM; Concentration of analyte PEA (60 min): 0.24 µM; % Remaining of Initial (n = 1) (s9, 0 h): 100%; % Remaining of Initial (n = 1) (s9, 10 min): 119%; % Remaining of Initial (n = 1) (s9, 20 min): 88%; % Remaining of Initial (n = 1) (s9, 0.5 h): 75%; % Remaining of Initial (n = 1) (s9, 1 h): 49%; microsomal CLint at 1 μM (s9, CLint): 125 µL/min/mg; half-life at 1 μM (s9, Half-life): 55 min

Further lines, with some results ahead:

Concentration (μM) of analyte PEA, 0 min (0 min)	Concentration (μM) of analyte PEA, 10 min (10 min)	Concentration (μM) of analyte PEA, 20 min (20 min)	Concentration (μM) of analyte PEA, 30 min (30 min)	Concentration (μM) of analyte PEA, 60 min (60 min)	% Remaining of Initial (n = 1), 0 min (s9, 0 h)	% Remaining of Initial (n = 1), 10 min (s9, 10 min)	% Remaining of Initial (n = 1), 20 min (s9, 20 min)	% Remaining of Initial (n = 1), 30 min (s9, 0.5 h)	% Remaining of Initial (n = 1), 60 min (s9, 1 h)	microsomal CLint at 1 μM (s9, CLint (mL/min/mg protein))	half-life at 1 μM (s9, Half-life (min))	SMILES	also measured
0.69 µM	0.63 µM	0.60 µM	0.52 µM	0.52 µM	100%	35%	<1.0%	<1.0%	<1.0%	123 µL/min/mg	5.6 min	CCCCCCCCCCCCCCCC(=O)NCCOC(=O)CCC [Compound I-2]	–
0 µM	0.024 µM	0.037 µM	0.047 µM	0.073 µM	100%	53%	46%	42%	31%	26.8 µL/min/mg	26 min	CCCCCCCCCCCCCCCC(=O)NCCOC(=O)CCC(=O)OCC(COC(=O)CCCCCCC)OC(=O)CCCCCCC (stereo not drawn) [Compound I-3, PEA-Succinate-Glycerol-Di-Caprylic]	–
0 µM	0.13 µM	0.24 µM	0.35 µM	0.38 µM	100%	1.4%	<1.0%	<1.0%	<1.0%	425 µL/min/mg	1.6 min	CCCCCCCCCCCCCCCC(=O)NCCOC(=O)CCC(=O)OCC(COC(=O)CCC)OC(=O)CCC (stereo not drawn) [Compound I-11]	–
